According to patent US8680290B2, “Isoxazoline derivatives and their use as herbicides” (Syngenta Limited, priority 2004, dated 2014):

Legend:
[1] = test system: Monocotyledonous and dicotyledonous test plants; experiment: Example B1 herbicidal action, application pre-emergence (Table B1b); format: in vivo; settings: 250 g/ha, evaluated after 4 weeks
Outline: (§1)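 Visual damage rating, 10 = plant dead and 0 = unharmed, taken at 3 weeks for post-emergence and 4 weeks for pre-emergence treatment. Application by spray of formulated aqueous solution either immediately after sowing or at 8–9 days' growth, with mono- and dicot plants kept in a greenhouse.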

[2] = test system: Monocotyledonous and dicotyledonous test plants; experiment: Example B1 herbicidal action, application post-emergence (Table B1a); format: in vivo; settings: 250 g/ha, evaluated after 3 weeks, scale 0-10
Outline: as §1

Compound: Cc1ccc(F)c(C(Br)S(=O)(=O)C2=NOC(C)(C)C2)c1F (centres unmarked) [1.102]
- herbicidal action (damage rating 0-10), Amaranthus [1]: 8
- herbicidal action (damage rating 0-10), Digitaria [1]: 10
- herbicidal action (damage rating 0-10), Panicum [1]: 10
- herbicidal action (damage rating 0-10), Setaria [1]: 9
- herbicidal action (damage rating 0-10), Sida [1]: 2
- herbicidal damage rating, Abutilon [2]: 0
- herbicidal damage rating, Amaranthus [2]: 0
- herbicidal damage rating, Digitaria [2]: 8
- herbicidal damage rating, Panicum [2]: 5
- herbicidal damage rating, Setaria [2]: 4
- herbicidal damage rating, Sida [2]: 2

Compound: CC1(C)CC(S(=O)(=O)C(F)(F)c2ccccc2SC(F)(F)F)=NO1 [1.70]
- herbicidal action (damage rating 0-10), Amaranthus [1]: 10
- herbicidal action (damage rating 0-10), Digitaria [1]: 10
- herbicidal action (damage rating 0-10), Panicum [1]: 10
- herbicidal action (damage rating 0-10), Setaria [1]: 10
- herbicidal action (damage rating 0-10), Sida [1]: 8
- herbicidal damage rating, Abutilon [2]: 5
- herbicidal damage rating, Amaranthus [2]: 2
- herbicidal damage rating, Digitaria [2]: 8
- herbicidal damage rating, Panicum [2]: 5
- herbicidal damage rating, Setaria [2]: 7
- herbicidal damage rating, Sida [2]: 5

Compound: Cc1ccccc1C(F)S(=O)(=O)C1=NOC(C)(C)C1 (racemic) [1.93]
- herbicidal action (damage rating 0-10), Amaranthus [1]: 8
- herbicidal action (damage rating 0-10), Digitaria [1]: 10
- herbicidal action (damage rating 0-10), Panicum [1]: 10
- herbicidal action (damage rating 0-10), Setaria [1]: 10
- herbicidal action (damage rating 0-10), Sida [1]: 6
- herbicidal damage rating, Abutilon [2]: 3
- herbicidal damage rating, Amaranthus [2]: 7
- herbicidal damage rating, Digitaria [2]: 7
- herbicidal damage rating, Panicum [2]: 8
- herbicidal damage rating, Setaria [2]: 3
- herbicidal damage rating, Sida [2]: 2

Compound: CC1(C)CC(S(=O)(=O)C(Cl)c2cc(F)cc3c2OCOC3)=NO1 (centres unmarked) [1.147]
- herbicidal action (damage rating 0-10), Amaranthus [1]: 5
- herbicidal action (damage rating 0-10), Digitaria [1]: 10
- herbicidal action (damage rating 0-10), Panicum [1]: 10
- herbicidal action (damage rating 0-10), Setaria [1]: 9
- herbicidal action (damage rating 0-10), Sida [1]: 0
- herbicidal damage rating, Abutilon [2]: 2
- herbicidal damage rating, Amaranthus [2]: 3
- herbicidal damage rating, Digitaria [2]: 7
- herbicidal damage rating, Panicum [2]: 8
- herbicidal damage rating, Setaria [2]: 0
- herbicidal damage rating, Sida [2]: 0

Compound: CC1(C)CC(S(=O)(=O)C(F)(F)c2ccccc2C(F)(F)F)=NO1 [1.65]
- herbicidal action (damage rating 0-10), Amaranthus [1]: 10
- herbicidal action (damage rating 0-10), Digitaria [1]: 10
- herbicidal action (damage rating 0-10), Panicum [1]: 10
- herbicidal action (damage rating 0-10), Setaria [1]: 10
- herbicidal action (damage rating 0-10), Sida [1]: 8
- herbicidal damage rating, Abutilon [2]: 2
- herbicidal damage rating, Amaranthus [2]: 0
- herbicidal damage rating, Digitaria [2]: 8
- herbicidal damage rating, Panicum [2]: 7
- herbicidal damage rating, Setaria [2]: 5
- herbicidal damage rating, Sida [2]: 2

Compound: CC1(C)CC(S(=O)(=O)C(F)(Cl)c2cc(F)ccc2F)=NO1 (centres unmarked) [1.126]
- herbicidal action (damage rating 0-10), Amaranthus [1]: 10
- herbicidal action (damage rating 0-10), Digitaria [1]: 10
- herbicidal action (damage rating 0-10), Panicum [1]: 10
- herbicidal action (damage rating 0-10), Setaria [1]: 10
- herbicidal action (damage rating 0-10), Sida [1]: 8
- herbicidal damage rating, Abutilon [2]: 3
- herbicidal damage rating, Amaranthus [2]: 0
- herbicidal damage rating, Digitaria [2]: 8
- herbicidal damage rating, Panicum [2]: 5
- herbicidal damage rating, Setaria [2]: 5
- herbicidal damage rating, Sida [2]: 5

Compound: CC1(C)CC(S(=O)(=O)C(F)(Cl)c2ccccc2C#N)=NO1 (racemic) [1.71]
- herbicidal action (damage rating 0-10), Amaranthus [1]: 10
- herbicidal action (damage rating 0-10), Digitaria [1]: 9
- herbicidal action (damage rating 0-10), Panicum [1]: 10
- herbicidal action (damage rating 0-10), Setaria [1]: 9
- herbicidal action (damage rating 0-10), Sida [1]: 5
- herbicidal damage rating, Abutilon [2]: 0
- herbicidal damage rating, Amaranthus [2]: 5
- herbicidal damage rating, Digitaria [2]: 8
- herbicidal damage rating, Panicum [2]: 0
- herbicidal damage rating, Setaria [2]: 3
- herbicidal damage rating, Sida [2]: 2
